These results are taken from ChEMBL document CHEMBL3593211, “Digging Deep for New Compounds from the Compass Plant, Silphium laciniatum” (J Nat Prod, 2015).

The subject of this experiment is NCI-H460. In words: Cytotoxicity against human NCI-H460 cells incubated for 72 hrs by cell-titer 96 aqueous non-radioactive cell proliferation assay. In kind it is functional, cell-based. The settings on record: NCI-H460, 72 h.

Structures are written as SMILES.

In the case of `CC(=O)OC/C(=C/CO)[C@@H]1C[C@@H]2[C@@]3(C)CCCC(C)(C)[C@@H]3CC[C@@]2(C)O1`, the concentration for half-maximal inhibition (IC50) was greater than 10 µM.

Regarding `CC1(C)CCC[C@]2(C)[C@H]3C[C@@H](/C(=C\CO)CO)O[C@]3(C)CC[C@@H]12`, the concentration for half-maximal inhibition (IC50) is greater than 10 µM.

With `CC(=O)OC[C@]1([C@@H]2C[C@@H]3[C@@]4(C)CCCC(C)(C)[C@@H]4CC[C@@]3(C)O2)O[C@H]1CO`, the half-maximal inhibitory concentration (IC50) is greater than 10 µM.

On to `CC(=O)OCC(O)(C(O)CO)[C@@H]1C[C@@H]2[C@@]3(C)CCCC(C)(C)[C@@H]3CC[C@@]2(C)O1` (some centres undefined), for which the IC50 was greater than 10 µM.

With `CC(=O)OCC(O)C(O)(CO)[C@@H]1C[C@@H]2[C@@]3(C)CCCC(C)(C)[C@@H]3CC[C@@]2(C)O1` (some centres undefined), the IC50 is greater than 10 µM.

In the case of `CC1(C)CCC[C@]2(C)[C@H]3C[C@@H](C(O)(CO)C(O)CO)O[C@]3(C)CC[C@@H]12` (some centres undefined), the IC50 is greater than 10 µM.

As to `C/C(=C\CC/C=C(\C)CC/C=C(\C)CCC(O)C(C)(C)O)C/C=C/[C@@]1(C)CC[C@@H](C(C)(C)O)O1` (some centres undefined), the IC50 was 9 µM.

Take `C/C(=C\CCC/C(C)=C/C(=O)C[C@@]1(C)CC[C@@H](C(C)(C)O)O1)CC/C=C(\C)CCC(O)C(C)(C)O` (some centres undefined): the half-maximal inhibitory concentration (IC50) came to 6 µM.

Take `CC1(C)CC[C@]2(C(=O)O)CC[C@]3(C)C(=CC[C@@H]4[C@@]5(C)CC[C@H](O[C@@H]6O[C@H](C(=O)O)[C@@H](O)[C@H](O)[C@H]6OC6O[C@H](CO)[C@@H](O)[C@H](O)[C@H]6O)C(C)(C)[C@@H]5CC[C@]43C)[C@@H]2C1` (some centres undefined): the IC50 is 7 µM.

As to `CC1(C)CCC[C@]2(C)[C@H]3C[C@@H]([C@@]4(CO)O[C@H]4CO)O[C@]3(C)CC[C@@H]12`, the IC50 was greater than 10 µM.

Take `CC(=O)OC[C@@]1([C@@H]2C[C@@H]3[C@@]4(C)CCCC(C)(C)[C@@H]4CC[C@@]3(C)O2)O[C@@H]1CO`: the IC50 was greater than 10 µM.

As for `CC1(C)CCC[C@]2(C)[C@H]3C[C@@H]([C@]4(CO)O[C@@H]4CO)O[C@]3(C)CC[C@@H]12`, the IC50 was greater than 10 µM.

Take `C/C(=C\CC/C=C(\C)CC/C=C(\C)CC[C@@H](O)C(C)(C)O)CC/C=C(\C)CC[C@@H](O)C(C)(C)O`: the IC50 worked out at 7 µM.

On to `CC1(C)CC[C@]2(C(=O)O)CC[C@]3(C)C(=CC[C@@H]4[C@@]5(C)CC[C@H](O[C@@H]6O[C@H](C(=O)O)[C@@H](O)[C@H](O)[C@H]6O)C(C)(C)[C@@H]5CC[C@]43C)[C@@H]2C1`, for which the IC50 was determined as 6 µM.

One may read the IC50 as the concentration that gives 50% inhibition.
